Legend:
H1047R PIK3CA enzyme = H1047R PIK3CA enzyme (Homo sapiens, UniProt P42336, H1047R); test: ADP-Glo Biochemical PIK3CA Kinase Assay
cells = conditions: Homo sapiens, MCF-10A, read-out: MCF10A I50

H1047R PIK3CA enzyme, sequence (P42336 whole entry H1047R): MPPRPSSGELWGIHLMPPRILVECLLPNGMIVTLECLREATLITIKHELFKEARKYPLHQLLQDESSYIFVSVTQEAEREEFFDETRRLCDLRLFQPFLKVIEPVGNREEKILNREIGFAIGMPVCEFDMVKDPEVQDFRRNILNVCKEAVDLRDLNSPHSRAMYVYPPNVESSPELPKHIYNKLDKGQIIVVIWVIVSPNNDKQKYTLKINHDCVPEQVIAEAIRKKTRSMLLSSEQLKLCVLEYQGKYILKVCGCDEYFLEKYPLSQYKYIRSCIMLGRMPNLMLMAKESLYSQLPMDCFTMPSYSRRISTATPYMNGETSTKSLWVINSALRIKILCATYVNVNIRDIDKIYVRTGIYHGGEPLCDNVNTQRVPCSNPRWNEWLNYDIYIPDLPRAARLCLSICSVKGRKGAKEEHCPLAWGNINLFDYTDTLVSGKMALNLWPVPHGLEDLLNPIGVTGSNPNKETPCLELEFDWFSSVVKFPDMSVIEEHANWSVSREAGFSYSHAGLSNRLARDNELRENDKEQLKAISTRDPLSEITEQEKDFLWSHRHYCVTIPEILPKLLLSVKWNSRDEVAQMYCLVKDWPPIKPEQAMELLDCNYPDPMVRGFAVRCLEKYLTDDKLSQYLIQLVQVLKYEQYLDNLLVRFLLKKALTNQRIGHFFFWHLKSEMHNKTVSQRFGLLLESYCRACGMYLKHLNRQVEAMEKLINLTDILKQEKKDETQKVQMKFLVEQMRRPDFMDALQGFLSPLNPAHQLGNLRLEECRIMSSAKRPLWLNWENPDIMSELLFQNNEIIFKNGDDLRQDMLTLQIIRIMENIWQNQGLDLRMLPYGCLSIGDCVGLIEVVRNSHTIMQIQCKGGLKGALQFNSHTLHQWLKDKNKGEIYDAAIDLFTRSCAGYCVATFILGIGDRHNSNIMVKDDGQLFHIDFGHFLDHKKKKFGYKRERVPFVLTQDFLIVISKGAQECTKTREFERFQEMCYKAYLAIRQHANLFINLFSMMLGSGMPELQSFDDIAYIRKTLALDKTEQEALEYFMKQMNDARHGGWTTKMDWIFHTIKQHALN
H1047R PIK3CA enzyme, sequence (P27986 whole entry partner): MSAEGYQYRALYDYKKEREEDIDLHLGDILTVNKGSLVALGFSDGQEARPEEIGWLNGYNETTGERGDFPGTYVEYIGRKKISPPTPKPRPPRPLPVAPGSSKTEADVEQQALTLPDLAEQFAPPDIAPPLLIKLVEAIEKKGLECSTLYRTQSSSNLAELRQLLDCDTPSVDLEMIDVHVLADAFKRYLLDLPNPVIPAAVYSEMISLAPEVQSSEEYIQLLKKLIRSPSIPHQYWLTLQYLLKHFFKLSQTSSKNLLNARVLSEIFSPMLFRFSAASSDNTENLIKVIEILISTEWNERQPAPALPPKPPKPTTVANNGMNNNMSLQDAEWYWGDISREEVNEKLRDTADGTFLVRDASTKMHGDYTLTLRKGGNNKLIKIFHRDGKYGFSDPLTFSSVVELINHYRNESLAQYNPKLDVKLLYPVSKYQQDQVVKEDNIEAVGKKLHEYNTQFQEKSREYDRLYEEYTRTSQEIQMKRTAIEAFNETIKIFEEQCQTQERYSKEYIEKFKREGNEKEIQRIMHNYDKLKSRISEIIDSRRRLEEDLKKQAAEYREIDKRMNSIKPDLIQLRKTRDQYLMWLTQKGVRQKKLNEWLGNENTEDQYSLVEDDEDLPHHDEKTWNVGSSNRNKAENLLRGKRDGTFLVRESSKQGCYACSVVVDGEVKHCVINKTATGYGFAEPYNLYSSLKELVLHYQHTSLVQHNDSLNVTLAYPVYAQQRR

Row | Structure (SMILES) | IC50 (H1047R PIK3CA enzyme) [nM] | IC50 (cells) [nM]
1 | C[C@H](NC(=O)c1cnc(N2CCOc3ccccc32)c(NC(=O)c2csc3ccccc23)c1)c1ccncc1 (stereo in doubt) [I-315] | 500 to 1000 | 10000 to 36000
2 | CNC(=O)c1cnc(Nc2ccccc2C)c(NC(=O)c2cc(F)cc(C(F)(F)F)c2)c1 [I-1] | 500 to 1000 | 5000 to 10000
3 | CNC(=O)c1cnc(Nc2ccccc2C)c(NC(=O)c2cc(Cl)cc(Cl)c2)c1 [I-6] | 500 to 1000 | 5000 to 10000
4 | Cc1ccccc1Nc1ncc(-c2cncnc2)cc1NC(=O)c1cc(F)cc(C(F)(F)F)c1 [I-7] | 100 to 500 | 5000 to 10000
5 | CNC(=O)c1cnc(Nc2ccccc2C)c(NS(=O)(=O)c2ccc(F)cc2C)c1 [I-8] | 100 to 500 | 1000 to 5000
6 | Cc1ccccc1Nc1ncccc1NC(=O)c1cc(F)cc(C(F)(F)F)c1 [I-11] | 1000 to 10000 | 10000 to 36000
7 | Cc1ccccc1Nc1ncc(C2CC2)cc1NC(=O)c1cc(F)cc(C(F)(F)F)c1 [I-21] | 1000 to 10000 | 10000 to 36000
8 | CNC(=O)c1cnc(Nc2ccccc2C)c(NC(=O)C(O)c2cccc(F)c2)c1 (centres unmarked) [I-27] | 500 to 1000 | 1000 to 5000
9 | Cc1ccccc1Nc1ncc(C(N)=O)cc1NC(=O)c1cc(F)cc(C(F)(F)F)c1 [I-28] | 500 to 1000 | 5000 to 10000
10 | CNC(=O)c1cnc(Nc2ccccc2C)c(NC(=O)Cc2ccc(O)c(O)c2)c1 [I-30] | 500 to 1000 | 5000 to 10000
11 | CNC(=O)c1cnc(Nc2ccc(C)cc2)c(NC(=O)c2cc(F)cc(C(F)(F)F)c2)c1 [I-36] | 500 to 1000 | 10000 to 36000
12 | CNC(=O)c1cnc(Nc2ccccc2C)c(NC(=O)c2csc3ccccc23)c1 [I-41] | 100 to 500 | 10000 to 36000
13 | Cc1ccccc1Nc1ncc(C(C)(C)O)cc1NC(=O)c1cc(F)cc(C(F)(F)F)c1 [I-42] | 1000 to 10000 | 10000 to 36000
14 | Cc1ccccc1Nc1ncc(-c2cccc(S(N)(=O)=O)c2)cc1NC(=O)c1cc(F)cc(C(F)(F)F)c1 [I-45] | 100 to 500 | 1000 to 5000
15 | Cc1ccccc1Nc1ncc(-c2ccc(C#N)cc2)cc1NC(=O)c1cc(F)cc(C(F)(F)F)c1 [I-46] | 100 to 500 | 1000 to 5000
16 | Cc1ccccc1Nc1ncc(C(=O)NC2CS(=O)(=O)C2)cc1NC(=O)c1cc(F)cc(C(F)(F)F)c1 [I-51] | ≤ 100 | < 1000
17 | Cc1ccccc1Nc1ncc(C(=O)NCc2ccnn2C)cc1NC(=O)c1cc(F)cc(C(F)(F)F)c1 [I-52] | 100 to 500 | 1000 to 5000

Row | Structure (SMILES) | IC50 (H1047R PIK3CA enzyme) [nM] | IC50 (cells) [nM]
18 | Cc1ccccc1Nc1ncc(C(=O)NCc2cnn(C)c2)cc1NC(=O)c1cc(F)cc(C(F)(F)F)c1 [I-53] | 100 to 500 | 5000 to 10000
19 | Cc1ccccc1Nc1ncc(NC(=O)OC(C)(C)C)cc1NC(=O)c1cc(F)cc(C(F)(F)F)c1 [I-54] | 1000 to 10000 | 10000 to 36000
20 | COc1ncc(-c2cnc(Nc3ccccc3C)c(NC(=O)c3cc(F)cc(C(F)(F)F)c3)c2)cn1 [I-57] | 500 to 1000 | 1000 to 5000
21 | Cc1ccccc1Nc1ncc(Br)cc1NC(=O)c1cc(F)cc(C(F)(F)F)c1 [I-60] | 1000 to 10000 | 1000 to 5000
22 | Cc1ccccc1Nc1ncc(C(=O)NCc2nccs2)cc1NC(=O)c1cc(F)cc(C(F)(F)F)c1 [I-65] | 100 to 500 | 1000 to 5000
23 | Cc1ccccc1Nc1ncc(-c2cncc(C#N)c2)cc1NC(=O)c1cc(F)cc(C(F)(F)F)c1 [I-75] | 100 to 500 | 1000 to 5000
24 | Cc1ccccc1Nc1ncc(-c2ccc(C(N)=O)cc2)cc1NC(=O)c1cc(F)cc(C(F)(F)F)c1 [I-79] | 100 to 500 | 5000 to 10000
25 | Cc1ccccc1Nc1ncc(-c2ccc(O)cc2)cc1NC(=O)c1cc(F)cc(C(F)(F)F)c1 [I-82] | 500 to 1000 | 10000 to 36000
26 | CNC(=O)c1ccc(-c2cnc(Nc3ccccc3C)c(NC(=O)c3cc(F)cc(C(F)(F)F)c3)c2)cc1 [I-84] | 1000 to 10000 | 5000 to 10000
27 | Cc1ccccc1Nc1ncc(-c2cnn(C)c2)cc1NC(=O)c1csc2ccccc12 [I-93] | 100 to 500 | 5000 to 10000
28 | Cc1ccccc1Nc1ncc(C(=O)NCc2ccnn2C)cc1NC(=O)c1csc2ccccc12 [I-135] | 100 to 500 | 1000 to 5000
29 | Cc1ccccc1Nc1ncc(C(=O)NC2CS(=O)(=O)C2)cc1NC(=O)c1csc2ccccc12 [I-136] | ≤ 100 | 1000 to 5000
30 | Cc1ccccc1Nc1ncc(C(=O)NCC2CS(=O)(=O)C2)cc1NC(=O)c1csc2ccccc12 [I-137] | 100 to 500 | 5000 to 10000
31 | Cc1ccccc1Nc1ncc(C(=O)NCc2nccs2)cc1NC(=O)c1csc2ccccc12 [I-138] | ≤ 100 | 5000 to 10000
32 | CNC(=O)c1cnc(Nc2ccccc2C)c(NC(=O)c2nsc3ccccc23)c1 [I-139] | 500 to 1000 | 10000 to 36000
33 | Cc1ccccc1Nc1ncc(-c2cnn(C)c2)cc1NC(=O)c1csc2ccc(F)cc12 [I-146] | 100 to 500 | 1000 to 5000
34 | CNC(=O)c1cnc(Nc2ccccc2C)c(NC(=O)c2csc3ccc(Cl)cc23)c1 [I-149] | 100 to 500 | 10000 to 36000

Source: patent US20250090540A1, “PI3K-ALPHA INHIBITORS AND METHODS OF USE THEREOF” (Relay Therapeutics, Inc., priority 2021, published 2025)
